In patent US20260285850A1, “SUBSTITUTED OXAZOLIDINONES AND IMIDAZOLINONES AS HERBICIDES” (FMC CORPORATION, priority 2023, published 2026):

Experiments:
Assay type in all cases: in vivo
[1] = test system: oat, wild (wild oat, Avena fatua); assay: Test A preemergence soil spray, visual injury rating 0-100; conditions: 10 days, 0 = no effect, 100 = complete control
Method in brief: (§1)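 Loam-sand pots got test material in surfactant-containing solvent, either as a directed soil spray before emergence or on plants at the one- to two-leaf stage. Visual injury (0-100) was read after ten greenhouse days.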

[2] = test system: palmer (palmer amaranth, palmer pigweed, Amaranthus palmeri); assay: as above; conditions: 10 days, 0 = no effect, 100 = complete control
Method in brief: as §1

[3] = test system: ragweed (common ragweed, Ambrosia artemisiifolia); assay: as above; conditions: 10 days, 0 = no effect, 100 = complete control
Method in brief: as §1

[4] = test system: corn (Zea mays); assay: as above; conditions: 10 days, 0 = no effect, 100 = complete control
Method in brief: as §1

[5] = test system: blackgrass (Alopecurus myosuroides); assay: as above; conditions: 10 days, 0 = no effect, 100 = complete control
Method in brief: as §1

[6] = test system: soybean (Glycine max); assay: as above; conditions: 10 days, 0 = no effect, 100 = complete control
Method in brief: as §1

[7] = test system: barnyardgrass (Echinochloa crus-galli); assay: as above; conditions: 10 days, 0 = no effect, 100 = complete control
Method in brief: as §1

[8] = test system: ryegrass, Italian (italian ryegrass, Lolium multiflorum); assay: as above; conditions: 10 days, 0 = no effect, 100 = complete control
Method in brief: as §1

[9] = test system: green foxtail (Setaria viridis); assay: as above; conditions: 10 days, 0 = no effect, 100 = complete control
Method in brief: as §1

[10] = test system: wheat (Triticum aestivum); assay: as above; conditions: 10 days, 0 = no effect, 100 = complete control
Method in brief: as §1

[11] = test system: kochia (Bassia scoparia); assay: as above; conditions: 10 days, 0 = no effect, 100 = complete control
Method in brief: as §1

[12] = test system: barnyardgrass (Echinochloa crusgalli); assay: Test B flooded paddy test, visual plant response rating 0-100; conditions: 250 g ai/ha, Flood, applied to paddy water, evaluated after 13 days
Method in brief: (§2)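 Plants were grown to the 2-leaf stage, then pots were flooded to 3 cm above the soil and test compounds were applied directly into the paddy water. Water depth was held there throughout; after 13 days in a greenhouse, injury was scored visually against untreated controls.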

[13] = test system: ducksalad (Heteranthera limosa); assay: as above; conditions: 250 g ai/ha, Flood, applied to paddy water, evaluated after 13 days
Method in brief: as §2

[14] = test system: sedge, umbrella (small-flower umbrella sedge, Cyperus difformis); assay: as above; conditions: 250 g ai/ha, Flood, applied to paddy water, evaluated after 13 days
Method in brief: as §2

[15] = test system: rice (Oryza sativa); assay: as above; conditions: 250 g ai/ha, Flood, applied to paddy water, evaluated after 13 days
Method in brief: as §2

[16] = test system: oat, wild (wild oat, Avena fatua); assay: Test A postemergence application, visual injury rating 0-100; conditions: 10 days
Method in brief: as §1

[17] = test system: palmer (palmer amaranth, palmer pigweed, Amaranthus palmeri); assay: as above; conditions: 10 days
Method in brief: as §1

[18] = test system: ragweed (common ragweed, Ambrosia artemisiifolia); assay: as above; conditions: 10 days
Method in brief: as §1

[19] = test system: corn (Zea mays); assay: as above; conditions: 10 days
Method in brief: as §1

[20] = test system: blackgrass (Alopecurus myosuroides); assay: as above; conditions: 10 days
Method in brief: as §1

[21] = test system: soybean (Glycine max); assay: as above; conditions: 10 days
Method in brief: as §1

[22] = test system: barnyardgrass (Echinochloa crus-galli); assay: as above; conditions: 10 days
Method in brief: as §1

[23] = test system: ryegrass, Italian (italian ryegrass, Lolium multiflorum); assay: as above; conditions: 10 days
Method in brief: as §1

[24] = test system: galium (catchweed bedstraw, Galium aparine); assay: as above; conditions: 10 days
Method in brief: as §1

[25] = test system: green foxtail (Setaria viridis); assay: as above; conditions: 10 days
Method in brief: as §1

[26] = test system: wheat (Triticum aestivum); assay: as above; conditions: 10 days
Method in brief: as §1

[27] = test system: horseweed (Erigeron canadensis); assay: as above; conditions: 10 days
Method in brief: as §1

[28] = test system: kochia (Bassia scoparia); assay: as above; conditions: 10 days
Method in brief: as §1

[29] = 31 g ai/ha, postemergence, 0 = no effect, 100 = complete control
[30] = Postemergence, 125 g ai/ha, 0 is no effect, 100 is complete control

## CC1(C(=O)NC2CC=C(C(=O)OCC(F)(F)F)C2)CN(c2cc(F)cc(F)c2)C(=O)O1 (single isomer, unassigned) [Compound 24]
[1]; 31 g ai/ha
  Oat, Wild plant response rating (0-100): 0
[1]; 125 g ai/ha
  Oat, Wild plant response rating (0 to 100 scale): 20
[2]; 31 g ai/ha
  Amaranth, Palmer plant response rating (0-100): 30
[2]; 125 g ai/ha
  Amaranth, Palmer plant response rating (0 to 100 scale): 70
[3]; 31 g ai/ha
  Ragweed plant response rating (0-100): 0
[3]; 125 g ai/ha
  Ragweed plant response rating (0 to 100 scale): 10
[4]; 31 g ai/ha
  Corn plant response rating (0-100): 0
[4]; 125 g ai/ha
  Corn plant response rating (0 to 100 scale): 0
[5]; 31 g ai/ha
  Blackgrass plant response rating (0-100): 0
[5]; 125 g ai/ha
  Blackgrass plant response rating (0 to 100 scale): 0
[6]; 31 g ai/ha
  Soybean plant response rating (0-100): 0
[6]; 125 g ai/ha
  Soybean plant response rating (0 to 100 scale): 10
[7]; 31 g ai/ha
  Barnyardgrass plant response rating (0-100): 10
[7]; 125 g ai/ha
  Barnyardgrass plant response rating (0 to 100 scale): 10
[8]; 31 g ai/ha
  Ryegrass, Italian plant response rating (0-100): 0
[8]; 125 g ai/ha
  Ryegrass, Italian plant response rating (0 to 100 scale): 0
[9]; 31 g ai/ha
  Foxtail, Green plant response rating (0-100): 50
[9]; 125 g ai/ha
  Foxtail, Green plant response rating (0 to 100 scale): 50
[10]; 31 g ai/ha
  Wheat plant response rating (0-100): 0
[10]; 125 g ai/ha
  Wheat plant response rating (0 to 100 scale): 70
[11]; 31 g ai/ha
  Kochia plant response rating (0-100): 0
[11]; 125 g ai/ha
  Kochia plant response rating (0 to 100 scale): 0
[12]
  Plant response rating, Barnyardgrass (0 to 100 scale, 0 is no effect and 100 is complete control): 0
[13]
  Plant response rating, Ducksalad (0 to 100 scale, 0 is no effect and 100 is complete control): 0
[14]
  Plant response rating, Sedge, Umbrella (0 to 100 scale, 0 is no effect and 100 is complete control): 0
[15]
  Plant response rating, Rice (0 to 100 scale, 0 is no effect and 100 is complete control): 0
[16]; [29]
  Oat, Wild plant response rating (0-100): 10
[16]; [30]
  Oat, Wild plant response rating (0 to 100 scale): 60
[17]; [29]
  Amaranth, Palmer plant response rating (0-100): 0
[17]; [30]
  Amaranth, Palmer / Pigweed, Palmer plant response rating (0 to 100 scale): 40
[18]; [29]
  Ragweed plant response rating (0-100): 20
[18]; [30]
  Ragweed plant response rating (0 to 100 scale): 30
[19]; [29]
  Corn plant response rating (0-100): 10
[19]; [30]
  Corn plant response rating (0 to 100 scale): 90
[20]; [29]
  Blackgrass plant response rating (0-100): 0
[20]; [30]
  Blackgrass plant response rating (0 to 100 scale): 60
[21]; [29]
  Soybean plant response rating (0-100): 0
[21]; [30]
  Soybean plant response rating (0 to 100 scale): 60
[22]; [29]
  Barnyardgrass plant response rating (0-100): 20
[22]; [30]
  Barnyardgrass plant response rating (0 to 100 scale): 80
[23]; [29]
  Ryegrass, Italian plant response rating (0-100): 40
[23]; [30]
  Ryegrass, Italian plant response rating (0 to 100 scale): 60
[24]; [29]
  Galium plant response rating (0-100): 40
[24]; [30]
  Galium plant response rating (0 to 100 scale): 80
[25]; [29]
  Foxtail, Green plant response rating (0-100): 0
[25]; [30]
  Foxtail, Green plant response rating (0 to 100 scale): 60
[26]; [29]
  Wheat plant response rating (0-100): 30
[26]; [30]
  Wheat plant response rating (0 to 100 scale): 90
[27]; [29]
  Horseweed plant response rating (0-100): 20
[27]; [30]
  Horseweed plant response rating (0 to 100 scale): 10
[28]; [29]
  Kochia plant response rating (0-100): 20
[28]; [30]
  Kochia plant response rating (0 to 100 scale): 90
